According to the METLIN SMRT retention time set (Domingo-Almenara et al. 2019):

Assay: gradient 5% acetonitrile 3 min, to 50% in 2 min, to 85% in 15 min, held 3 min, 100 µL/min
Settings: column: Zorbax Extend-C18 2.1 x 50 mm; eluents: water / acetonitrile, 0.1% formic acid
How it was run: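 Standards, all pure, were combined into mixtures of ~100 molecules and run at 100 μL/min on a Zorbax Extend-C18 column (2.1 × 50 mm, 1.8 μm) with water and acetonitrile, each containing 0.1% formic acid. A coupled quadrupole time-of-flight mass spectrometer operated in positive and negative ionization mode. Retention time values come from computationally picked adduct peaks, each inspected manually.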

SMILES: O=C(Cn1nc(Cc2cccnc2)c2ccccc2c1=O)NCC1COc2ccccc2O1 (configuration not stated)
- RP-LC retention time: 640 s

SMILES: CC1CCN(S(=O)(=O)N2CCCC(C(=O)NC3CCN(Cc4ccccc4)CC3)C2)CC1 (configuration not stated)
- RP-LC retention time: 713 s

SMILES: Cc1cc(-c2nnc(-c3ccc(F)cc3)o2)c(C)n1CC(=O)NCc1ccccc1
- RP-LC retention time: 920 s

SMILES: CSc1ccc(-c2nc3cnccn3c2Nc2ccc(C(=O)O)cc2)cc1
- RP-LC retention time: 719 s

SMILES: CCOc1cccc(-c2noc(Cn3c(=O)n(CCc4ccccc4)c(=O)c4sccc43)n2)c1
- RP-LC retention time: 660 s

SMILES: Cn1nc(-c2nnc(-c3ccc(F)cc3)o2)c2c1CCN(S(=O)(=O)c1cc(F)ccc1F)C2
- RP-LC retention time: 958 s

SMILES: c1ccc(-c2cc(N3CCOCC3)n[nH]2)cc1
- RP-LC retention time: 686 s

SMILES: Cc1ccc(NC(=O)NCCn2c(C(F)(F)F)nc3cccnc32)cc1F
- RP-LC retention time: 786 s

SMILES: CC1(C(=O)NCc2ccccc2)CCN(S(=O)(=O)c2ccc(C3CCCCC3)cc2)CC1
- RP-LC retention time: 1230 s

SMILES: Cc1nc(C)c(C(=O)Nc2nc(-c3ccccc3)cs2)s1
- RP-LC retention time: 886 s

SMILES: CC(=O)N1c2ccc(S(=O)(=O)N3CCCCC3)cc2CC1C(=O)NCCCc1ccccc1 (configuration not stated)
- RP-LC retention time: 917 s

SMILES: COc1ccc(S(=O)(=O)N2CCC(c3nc(C(=O)N4CCOCC4)c(C)o3)CC2)cc1
- RP-LC retention time: 752 s

SMILES: COc1cc(Cl)c(C)cc1NC(=O)Cc1nnc(-c2ccc3ncccc3c2)o1
- RP-LC retention time: 848 s

SMILES: CCN1C(=O)c2cc(C(=O)N3CCN(c4ccccc4F)CC3)nn2CC1(C)C(=O)NC1CCCC1 (configuration not stated)
- RP-LC retention time: 840 s

SMILES: CN(C)S(=O)(=O)c1ccc(-c2nnc(C(=O)NCCN3CCc4ccccc4C3)o2)cc1
- RP-LC retention time: 642 s

SMILES: O=C1NCCCn2cc(S(=O)(=O)NCc3cccc(C(F)(F)F)c3)cc21
- RP-LC retention time: 718 s

SMILES: Cc1ccsc1C(=O)N1CCN(c2ccc(=O)n(-c3cccc(Cl)c3)n2)CC1
- RP-LC retention time: 853 s

SMILES: O=C(Nc1nc(-c2ccccc2)cs1)c1c(-c2ccc(F)cc2)nc2n1CCS2(=O)=O
- RP-LC retention time: 1020 s

SMILES: Cc1ccc(NC(=O)C2CCN(S(=O)(=O)c3cc(C(=O)N4CCCC4)n(C)c3)CC2)cc1Cl
- RP-LC retention time: 875 s

SMILES: CC(C)CN(CC(=O)N(Cc1ccco1)CC1CCCO1)C(=O)c1ccc(F)cc1 (configuration not stated)
- RP-LC retention time: 990 s

SMILES: NS(=O)(=O)c1ccc(CCNC(=O)Cn2nc3c(N4CCOCC4)nccn3c2=O)cc1
- RP-LC retention time: 613 s

SMILES: O=C1CC(NC(=O)Nc2ccccc2C(F)(F)F)CN1 (configuration not stated)
- RP-LC retention time: 595 s

SMILES: CCCCOc1ccc(-c2cc3c4nnc(CCC(=O)NCCc5cccs5)n4ccn3n2)cc1
- RP-LC retention time: 943 s

SMILES: Cc1ccc2c(c1)C(c1ccccc1)N(C(=O)c1ccc([N+](=O)[O-])cc1)CC(=O)N2 (configuration not stated)
- RP-LC retention time: 834 s

SMILES: O=S(=O)(c1cccc2nsnc12)N1CCc2nc(-c3ccccc3)ncc2C1
- RP-LC retention time: 1000 s

SMILES: O=C(c1cccs1)N1CCCCC1c1nncn1Cc1ccccc1 (configuration not stated)
- RP-LC retention time: 642 s

SMILES: CCNc1cc(N2CCC(CCC(=O)N3CCCC3)CC2)ncn1
- RP-LC retention time: 608 s

SMILES: COc1ccc(-c2nc3cnc(Br)cn3c2Nc2ccc3c(c2)OCCO3)cc1
- RP-LC retention time: 900 s

SMILES: CCCN(CC1CCOC1)C(=O)Nc1ccc(Cl)cc1F (configuration not stated)
- RP-LC retention time: 853 s

SMILES: CCN1c2ccc(C)cc2C(=O)NC12CCN(C(=O)Cc1ccc(Cl)cc1)CC2
- RP-LC retention time: 919 s

SMILES: O=C(Cn1nc2c(Oc3ccc(F)cc3)nccn2c1=O)NCc1ccccc1
- RP-LC retention time: 770 s

SMILES: COc1cccc(NS(=O)(=O)c2cn(C(C)C)c3ncccc23)c1
- RP-LC retention time: 846 s

SMILES: Cc1ccc(-c2nc(-c3ccc4nnc(C)n4c3)no2)cc1
- RP-LC retention time: 968 s

SMILES: O=C(NCc1ccc(F)cc1)N1CC(n2ccnc2)C1
- RP-LC retention time: 577 s

SMILES: CCNC(=O)CCc1nc2ccccc2n(CC(=O)Nc2cccc(C(=O)OCC)c2)c1=O
- RP-LC retention time: 775 s

SMILES: C=CC(=O)Nc1ccc2ncnc(Nc3ccc(OCc4cccc(F)c4)c(Cl)c3)c2c1
- RP-LC retention time: 825 s

SMILES: O=C(Cc1csc2nc(-c3ccccc3)cn12)Nc1ccc(C(F)(F)F)cc1
- RP-LC retention time: 922 s

SMILES: Cc1cccc(CN2CCC(CNC(=O)Nc3cn(C)c(=O)c4ccccc34)CC2)c1
- RP-LC retention time: 603 s

SMILES: CCC(=O)N1CCc2cc(CNS(=O)(=O)c3ccc(OC)c(OC)c3)ccc21
- RP-LC retention time: 747 s

SMILES: O=C(NCCCc1ccccc1)C1CCCN(c2nccnc2Sc2ccccc2)C1 (configuration not stated)
- RP-LC retention time: 1090 s

SMILES: CN1C(=O)c2cccn2CC1C(=O)N1CCN(c2ncccn2)CC1 (configuration not stated)
- RP-LC retention time: 609 s

SMILES: O=C(c1cccc(-n2cnnn2)c1)N1CCC(c2nnc(-c3ccco3)s2)CC1
- RP-LC retention time: 651 s

SMILES: CCCNC(=O)N1CCCN(C2CCN(Cc3ccccc3)C2=O)CC1 (configuration not stated)
- RP-LC retention time: 535 s

SMILES: COc1cc(O)cc(O)c1C(=O)/C=C/c1ccccc1
- RP-LC retention time: 903 s

SMILES: COc1cc(Cl)ccc1C(=O)N1CCN(c2ccc(-c3nc(C)c(C)s3)cn2)CC1
- RP-LC retention time: 950 s

SMILES: CC(C)C(=O)Nc1ccc2c(c1)nc(CN1CCN(C(=O)c3ccco3)CC1)n2C
- RP-LC retention time: 605 s

SMILES: Cc1ccc(CNC(=O)c2cccc(-c3nc4cccnc4n3C)c2)o1
- RP-LC retention time: 722 s

SMILES: O=C(C1CC(=O)N(C2CCCCC2)C1)N1CCCCCC1 (configuration not stated)
- RP-LC retention time: 763 s

SMILES: Cc1nc(-c2noc(-c3ccc(F)cc3)n2)cn1CC(=O)NC(C)c1ccccc1 (configuration not stated)
- RP-LC retention time: 854 s

SMILES: COc1ccc(-c2csc(Nc3ccccc3OC)n2)cc1
- RP-LC retention time: 1130 s

SMILES: Cc1cnnn1-c1ccc(C(=O)Nc2cc(Cl)ccc2Cl)cc1
- RP-LC retention time: 815 s

SMILES: COc1ccc(-c2nc(N3CCOCC3)c3sc(CN(C)c4ncc(C(=O)NO)cn4)cc3n2)cn1
- RP-LC retention time: 674 s

SMILES: COCCNc1cc(-n2ccnc2C)n2nccc2n1
- RP-LC retention time: 554 s

SMILES: COc1ccc(C(=O)N2[C@H]3CC[C@@H]2c2cnc(C)nc2C3)cn1
- RP-LC retention time: 622 s

SMILES: CCNC(=O)c1csc(N2CCCC2)n1
- RP-LC retention time: 723 s

SMILES: O=C(NCC1CCN(C(=O)COc2ccccc2)CC1)c1ccc(F)c(F)c1
- RP-LC retention time: 758 s

SMILES: CC(C)NC(=O)N(CC(=O)N1CCc2sccc2C1COc1cccc(F)c1)C1CC1 (configuration not stated)
- RP-LC retention time: 942 s

SMILES: Cc1cccc(CNC(=O)CN2C(=O)CCc3cc(S(=O)(=O)N4CCCCC4C)ccc32)c1 (configuration not stated)
- RP-LC retention time: 998 s

SMILES: O=S(=O)(c1cccn2c(SCc3c(F)cccc3Cl)nnc12)N1CCCC1
- RP-LC retention time: 855 s

SMILES: Cc1noc(C2CN(C(=O)Nc3ccc(C)c(Cl)c3)CC23CCOCC3)n1 (configuration not stated)
- RP-LC retention time: 816 s

SMILES: Cn1nc(N2CCCC(NS(=O)(=O)c3cccc(Cl)c3)C2)ccc1=O (configuration not stated)
- RP-LC retention time: 775 s

SMILES: CCCCNC(=O)CCCN1C(=O)CCn2nc(-c3cn(C)c4ccccc34)cc21
- RP-LC retention time: 781 s

SMILES: COc1ccccc1-c1nc2nccc(-c3ccc4c(c3)OCCCO4)n2n1
- RP-LC retention time: 888 s

SMILES: O=C(CN1CCN(C(=O)CCc2ccccc2)CC1)c1cccs1
- RP-LC retention time: 550 s

SMILES: Cn1cc(-c2cc3n(n2)CCC(=O)N3CCCC(=O)NCc2ccco2)c2ccccc21
- RP-LC retention time: 775 s

SMILES: Cc1c(-c2ccc(O)cc2)n(Cc2ccc(OCCN3CCCCCC3)cc2)c2ccc(O)cc12
- RP-LC retention time: 720 s

SMILES: CC(C)(C)NC(=O)C(=O)NCC1CCN(C(=O)COc2ccccc2)CC1
- RP-LC retention time: 747 s

SMILES: COC(=O)c1c(C)[nH]c(C(=O)N2CCC(CC(=O)NCc3ccc(OC)cc3)CC2)c1C
- RP-LC retention time: 715 s

SMILES: O=C(NCc1cc(F)cc(F)c1)C1CCN(c2ccc(SCc3ccccc3)nn2)CC1
- RP-LC retention time: 791 s

SMILES: COc1ccccc1C(=O)NCCc1nc2cccnc2n1C(C)C
- RP-LC retention time: 718 s

SMILES: O=C(Nc1ccc(F)c(F)c1)c1c(O)c2cccnc2n(-c2cccc(F)c2)c1=O
- RP-LC retention time: 1260 s

SMILES: COc1ccc(CCNC(=O)c2ccc(-n3nc(C)cc3C)nc2)cc1OC
- RP-LC retention time: 758 s

SMILES: Cc1ccn2c(NC(=O)c3ccc4ccccc4c3)c(-c3ccc(F)cc3)nc2c1
- RP-LC retention time: 765 s

SMILES: O=C(COc1ccccc1)N1CCN(Cc2noc3ccccc23)CC1
- RP-LC retention time: 708 s

SMILES: N#Cc1ccc(NC(=O)Cn2cccc(-c3nc(-c4ccc(Cl)cc4)no3)c2=O)cc1
- RP-LC retention time: 933 s

SMILES: CC(C)Cc1nc(N2CCN(C(=O)c3ccc([N+](=O)[O-])cc3)CC2)c(C#N)c2c1COC(C)(C)C2
- RP-LC retention time: 1220 s

SMILES: COc1ccccc1CC(=O)N1CCN(c2ccc(-c3ccccn3)nn2)CC1
- RP-LC retention time: 598 s

SMILES: Cc1cc(OCC(=O)N[C@@H](Cc2ccccc2)C(=O)O)c2c3c(c(=O)oc2c1)CCC3
- RP-LC retention time: 835 s

SMILES: Cc1cc(C(N)=O)c2cc(Cl)ccc2n1
- RP-LC retention time: 592 s

SMILES: CCN1N=C(C(=O)N2CCC(C)CC2)S(=O)(=O)c2ccccc21
- RP-LC retention time: 844 s

SMILES: CCc1cccc(NC(=O)Cn2cnc3c(sc4nc(-c5ccccc5)ccc43)c2=O)c1
- RP-LC retention time: 1100 s

SMILES: COc1cccc(C2Cn3nnc(-c4nc(-c5ccc(Cl)cc5)no4)c3CO2)c1 (configuration not stated)
- RP-LC retention time: 1220 s

SMILES: Cc1nn2c(CNC(=O)c3ccc(C)c(C)c3)c(C)nc2s1
- RP-LC retention time: 650 s

SMILES: COc1ccc(S(=O)Cc2ccc(C(=O)NCCCN3CCc4ccccc4C3)o2)cc1 (configuration not stated)
- RP-LC retention time: 619 s

SMILES: Cc1ccc2cc(CN3CCC4(CCC4O)CC3)c(=O)[nH]c2c1 (configuration not stated)
- RP-LC retention time: 590 s

SMILES: CCOc1ccc(CNC(=O)c2ccc3c(c2)N(C)C(=O)C2CCCCN32)cc1OC (configuration not stated)
- RP-LC retention time: 774 s

SMILES: CCOC(=O)c1sc(NCCc2c[nH]c3ccc(OC)cc23)nc1-c1ccccc1
- RP-LC retention time: 1040 s
